Reference: patent US8343458B2, “Probes for in vivo targeting of active cysteine proteases” (The Board of Trustees of the Leland Stanford Junior …, priority 2008, dated 2013)
Values joined by “and” are separate entries in the source; they are usually repeats but may differ in a detail not shown here. Equal entries are not always repeated.

How the values were obtained:
MDA-MB-435 tumors = test: Biodistribution in nude mice bearing subcutaneous MDA-MB-435 tumors; format: in vivo, mouse; conditions: for Biodistribution: Blood / Biodistribution: Bone / Biodistribution: Brain / Biodistribution: Heart / Biodistribution: Intestines / Biodistribution: Kidney / Biodistribution: Liver / Biodistribution: Lung / Biodistribution: Muscle / Biodistribution: Pancreas / Biodistribution: Spleen / Biodistribution: Stomach / Biodistribution: Tumor / Tumor/Blood ratio / Tumor/Muscle ratio: MDA-MB-435 tumor mice, i.v. 740 kBq
Protocol: All animal studies were carried out in compliance with Federal and local institutional rules for the conduct of animal experimentation. Female athymic nude mice (nu/nu) were obtained from Charles River Laboratories (Boston, Mass.) at 7-8 weeks old and kept under sterile conditions. The nude mice were inoculated subcutaneously in the right shoulder with 2×10^6 cultured C2C12/Ras cells or 5×10^6 MDA-MB-435 cells. When the tumors reach 0.5-0.8 cm in diameter, the tumor bearing mice were subjected to in vivo biodistribution studies. For biodistribution studies, the mice bearing C2C12/Ras or MDA-MB-435 tumor xenografts (n=3 for each group) were injected with 740 KBq (20 μCi) of ^64Cu labeled tracer through the tail vein and sacrificed at different time points post injection (p.i.). Tumor and normal tissues of interest were removed and weighed, and their radioactivity was measured in a gamma-counter. The radioactivity uptake in the tumor and normal tissues was expressed as a percentage of the injected radioactive dose per gram of tissue (% ID/g).
We next examined the overall biodistribution of ^64Cu-Z-FK(DOTA)-AOMK using athymic nude mice carrying subcutaneously grafted C2C12/Ras and MDA-MB-435 tumors. […] Importantly, we observed rapid accumulation of radioactivity in the C2C12/Ras tumors expressing high levels of cysteine cathepsins (0.35±0.13% ID/g at 0.5 h p.i.). This activity remained in the tumors resulting in an uptake of 0.27±0.05% ID/g at 24 h p.i. For the MDA-MB-435 tumors with lower cysteine cathepsin expression, tumor uptake was approximately 2 fold lower at each time point relative to the C2C12/Ras tumors (P<0.05). […] The highest radioactivity was found in the liver due to high endogenous expression of various cysteine cathepsins. Moderate renal accumulation was also observed at all times in both tumor models.
Data are expressed as the percentage administered activity (injected dose) per gram of tissue (% ID/g) after intravenous injection of 740 kBq (20 μCi) of ^64Cu-Z-FK(DOTA)-AOMK at 0.5, 2, and 24 h pi (n=3). Significant lower tumor uptake and tumor/blood, tumor/muscle ratio in MDA-MB-435 breast cancer (P<0.05) were observed.

C2C12/Ras tumor = test: MicroPET imaging of C2C12/Ras tumor-bearing mice; format: in vivo, mouse; conditions: 2 and 24 hours post injection, 5.55 MBq i.v.
Excerpt: FIG. 3 is a composite photograph showing mouse uptake of labeled probe, i.e., a series of photographs of imaged mice. For purposes of reproduction, the image is converted to black and white and reversed. Lightest to darkest is a range between 0% ID (injected dose)/g and 1% ID/g. […] Arrows indicate location of tumors.
We performed micro PET imaging of mice bearing the MDA-MB-435 and C2C12/Ras tumors. The static microPET images (5 or 10-min scan, three tumor bearing mice were used for each study) of ^64Cu-Z-FK(DOTA)-AOMK are illustrated in coronal images of the subcutaneously implanted tumor-bearing mice (FIG. 3). […] The tumor, indicated by the arrow, is not clearly illuminated.
PET imaging of tumor-bearing mice is performed on a microPET R4 rodent model scanner (Concorde Microsystems Inc, Knoxyille, Tenn.). The mice bearing C2C12/Ras and MDA-MB-435 tumors were injected with 5.55 MBq (150 μCi) of ^64Cu AOMK probe via the tail vein. At different times p.i., the mice were anesthetized with 2% isoflurane, and placed in the prone position and near the center of the field of view of microPET. The 5 or 10-min static scans were obtained and the images were reconstructed by a two-dimensional ordered subsets expectation maximum (OSEM) algorithm.

Cc1cccc(C)c1C(=O)OCC(=O)[C@H](CCCCNC(=O)CN1CCN(CC(=O)[O-])CCN(CC(=O)O)CCN(CC(=O)[O-])CC1)NC(=O)[C@H](Cc1ccccc1)NC(=O)OCc1ccccc1.[64Cu+2] [^64Cu-Z-FK(DOTA)-AOMK]
Biodistribution: Blood (MDA-MB-435 tumors; 2 h p.i.): 0.29 ± 0.01 % ID/g
Biodistribution: Bone (MDA-MB-435 tumors; 2 h p.i.): 0.18 ± 0.06 % ID/g
Biodistribution: Brain (MDA-MB-435 tumors; 2 h p.i.): 0.04 ± 0.01 % ID/g
Biodistribution: Heart (MDA-MB-435 tumors; 2 h p.i.): 0.43 ± 0.09 % ID/g
Biodistribution: Intestines (MDA-MB-435 tumors; 2 h p.i.): 1.95 ± 1.24 % ID/g
Biodistribution: Kidney (MDA-MB-435 tumors; 2 h p.i.): 1.11 ± 0.05 % ID/g
Biodistribution: Liver (MDA-MB-435 tumors; 2 h p.i.): 2.64 ± 0.08 % ID/g
Biodistribution: Lung (MDA-MB-435 tumors; 2 h p.i.): 0.72 ± 0.08 % ID/g
Biodistribution: Muscle (MDA-MB-435 tumors; 2 h p.i.): 0.06 ± 0.00 % ID/g
Biodistribution: Pancreas (MDA-MB-435 tumors; 2 h p.i.): 0.25 ± 0.05 % ID/g
Biodistribution: Spleen (MDA-MB-435 tumors; 2 h p.i.): 0.31 ± 0.05 % ID/g
Biodistribution: Stomach (MDA-MB-435 tumors; 2 h p.i.): 0.45 ± 0.07 % ID/g
Biodistribution: Tumor (MDA-MB-435 tumors; 2 h p.i.): 0.18 ± 0.00 % ID/g
Tumor/Blood ratio (MDA-MB-435 tumors; 2 h p.i.): 0.61 and 0.61 ± 0.02
Tumor/Muscle ratio (MDA-MB-435 tumors; 2 h p.i.): 3.03 and 3.03 ± 0.20
Biodistribution: Blood (MDA-MB-435 tumors; 24 h p.i.): 0.28 ± 0.13 % ID/g
Biodistribution: Bone (MDA-MB-435 tumors; 24 h p.i.): 0.20 ± 0.20 % ID/g
Biodistribution: Brain (MDA-MB-435 tumors; 24 h p.i.): 0.05 ± 0.01 % ID/g
Biodistribution: Heart (MDA-MB-435 tumors; 24 h p.i.): 0.42 ± 0.15 % ID/g
Biodistribution: Intestines (MDA-MB-435 tumors; 24 h p.i.): 0.35 ± 0.08 % ID/g
Biodistribution: Kidney (MDA-MB-435 tumors; 24 h p.i.): 0.63 ± 0.08 % ID/g
Biodistribution: Liver (MDA-MB-435 tumors; 24 h p.i.): 1.37 ± 0.19 % ID/g
Biodistribution: Lung (MDA-MB-435 tumors; 24 h p.i.): 0.47 ± 0.08 % ID/g
Biodistribution: Muscle (MDA-MB-435 tumors; 24 h p.i.): 0.06 ± 0.02 % ID/g
Biodistribution: Pancreas (MDA-MB-435 tumors; 24 h p.i.): 0.18 ± 0.11 % ID/g
Biodistribution: Spleen (MDA-MB-435 tumors; 24 h p.i.): 0.31 ± 0.21 % ID/g
Biodistribution: Stomach (MDA-MB-435 tumors; 24 h p.i.): 0.34 ± 0.29 % ID/g
Biodistribution: Tumor (MDA-MB-435 tumors; 24 h p.i.): 0.14 ± 0.05 % ID/g
Tumor/Blood ratio (MDA-MB-435 tumors; 24 h p.i.): 0.54 ± 0.12
Tumor/Muscle ratio (MDA-MB-435 tumors; 24 h p.i.): 2.21 ± 0.34
Tumor uptake in MDA-MB-435 tumors, fold lower relative to C2C12/Ras tumors (MDA-MB-435 tumors; at each time point (2 h, 24 h), P<0.05): approximately 2 fold
MicroPET tumor visualization / contrast (C2C12/Ras tumor): clearly visualized with good tumor to contralateral background contrast
